Laboratory results reported in ChEMBL document CHEMBL5154740, “Novel Aurora A and Protein Kinase C (α, β1, β2, and θ) Multitarget Inhibitors: Impact of Selenium Atoms on the Potency and Selectivity” (J Med Chem, 2022).

Tests used:
[1] = target: Mitogen-activated protein kinase 8 (Homo sapiens) (UniProt P45983); assay: Inhibition of MAPK8 (unknown origin) at 50 nM by Z'LYTE screening method relative to control
[2] = target: T1, Eukaryotic elongation factor 2 kinase (Homo sapiens) (UniProt O00418); assay: Inhibition of EEF2K (unknown origin) at 50 nM by Z'LYTE screening method relative to control
T1 sequence (whole entry): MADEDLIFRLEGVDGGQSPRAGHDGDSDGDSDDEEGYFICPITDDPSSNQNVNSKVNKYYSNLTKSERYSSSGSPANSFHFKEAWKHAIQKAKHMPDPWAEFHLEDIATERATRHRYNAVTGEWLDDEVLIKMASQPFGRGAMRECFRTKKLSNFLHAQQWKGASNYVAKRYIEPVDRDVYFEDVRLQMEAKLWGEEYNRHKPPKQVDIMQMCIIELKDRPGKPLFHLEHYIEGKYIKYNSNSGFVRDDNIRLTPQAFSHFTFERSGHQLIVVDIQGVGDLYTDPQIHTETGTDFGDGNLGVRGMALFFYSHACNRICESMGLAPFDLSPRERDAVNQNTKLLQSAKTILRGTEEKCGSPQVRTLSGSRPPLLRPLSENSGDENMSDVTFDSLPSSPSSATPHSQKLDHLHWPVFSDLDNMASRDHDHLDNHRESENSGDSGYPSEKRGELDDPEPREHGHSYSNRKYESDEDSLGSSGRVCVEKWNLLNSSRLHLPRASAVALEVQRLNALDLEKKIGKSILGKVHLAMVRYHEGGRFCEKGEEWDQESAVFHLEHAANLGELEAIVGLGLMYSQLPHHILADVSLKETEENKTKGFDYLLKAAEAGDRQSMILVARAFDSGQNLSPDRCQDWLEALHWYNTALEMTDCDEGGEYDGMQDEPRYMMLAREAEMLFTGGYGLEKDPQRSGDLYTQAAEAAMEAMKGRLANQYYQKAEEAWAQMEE

[3] = target: Mitogen-activated protein kinase 1 (Homo sapiens) (UniProt P28482); assay: Inhibition of MAPK1 (unknown origin) at 50 nM by Z'LYTE screening method relative to control
[4] = target: Focal adhesion kinase 1 (Homo sapiens) (UniProt Q05397); assay: Inhibition of FAK (unknown origin) at 50 nM by Z'LYTE screening method relative to control
Sequence of Focal adhesion kinase 1 (Homo sapiens) (Q05397 2-1052 limits assumed): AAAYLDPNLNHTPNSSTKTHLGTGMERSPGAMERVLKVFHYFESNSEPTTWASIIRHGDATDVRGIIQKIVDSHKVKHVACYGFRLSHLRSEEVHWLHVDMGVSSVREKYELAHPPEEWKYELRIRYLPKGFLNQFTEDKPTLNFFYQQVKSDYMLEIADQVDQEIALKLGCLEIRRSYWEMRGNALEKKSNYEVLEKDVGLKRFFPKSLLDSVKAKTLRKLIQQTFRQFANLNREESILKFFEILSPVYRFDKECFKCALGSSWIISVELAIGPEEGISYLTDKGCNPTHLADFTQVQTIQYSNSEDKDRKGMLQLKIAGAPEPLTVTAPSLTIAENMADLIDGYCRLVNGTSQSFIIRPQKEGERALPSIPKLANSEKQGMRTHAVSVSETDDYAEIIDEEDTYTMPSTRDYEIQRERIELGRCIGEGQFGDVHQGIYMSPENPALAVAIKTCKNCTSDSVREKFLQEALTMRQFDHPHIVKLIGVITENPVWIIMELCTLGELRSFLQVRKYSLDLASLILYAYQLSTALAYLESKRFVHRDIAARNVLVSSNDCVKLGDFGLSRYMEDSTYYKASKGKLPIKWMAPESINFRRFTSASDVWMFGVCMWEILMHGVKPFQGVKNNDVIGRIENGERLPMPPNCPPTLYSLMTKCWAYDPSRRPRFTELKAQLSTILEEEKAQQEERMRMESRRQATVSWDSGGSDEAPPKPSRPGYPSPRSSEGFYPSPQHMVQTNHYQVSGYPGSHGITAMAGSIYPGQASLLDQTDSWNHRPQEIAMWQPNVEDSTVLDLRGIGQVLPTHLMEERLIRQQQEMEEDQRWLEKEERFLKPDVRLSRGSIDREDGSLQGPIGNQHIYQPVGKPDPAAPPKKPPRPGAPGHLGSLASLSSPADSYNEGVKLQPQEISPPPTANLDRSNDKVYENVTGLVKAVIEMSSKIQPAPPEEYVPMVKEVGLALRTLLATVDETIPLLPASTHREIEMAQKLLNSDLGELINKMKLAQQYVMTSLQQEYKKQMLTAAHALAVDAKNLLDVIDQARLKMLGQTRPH

[5] = target: Mitogen-activated protein kinase 11 (Homo sapiens) (UniProt Q15759); assay: Inhibition of MAPK11 (unknown origin) at 50 nM by Z'LYTE screening method relative to control
Sequence of Mitogen-activated protein kinase 11 (Homo sapiens) (Q15759 whole entry): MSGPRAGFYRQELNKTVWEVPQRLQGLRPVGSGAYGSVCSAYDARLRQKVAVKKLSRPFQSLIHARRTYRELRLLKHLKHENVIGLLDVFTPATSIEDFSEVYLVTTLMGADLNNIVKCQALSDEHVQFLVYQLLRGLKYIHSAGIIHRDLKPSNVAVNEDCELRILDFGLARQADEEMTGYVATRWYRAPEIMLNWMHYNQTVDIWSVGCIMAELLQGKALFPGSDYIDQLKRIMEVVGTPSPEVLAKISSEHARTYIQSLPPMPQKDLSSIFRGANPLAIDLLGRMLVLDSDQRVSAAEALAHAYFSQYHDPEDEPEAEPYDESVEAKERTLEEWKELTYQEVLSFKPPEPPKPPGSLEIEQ

Homo sapiens = species on record: Homo sapiens; assay: Inhibition of CDK1/Cyclin B (unknown origin) at 50 nM by Z'LYTE screening method relative to control
[6] = target: Hepatocyte growth factor receptor (Homo sapiens) (UniProt P08581); assay: Inhibition of cMet (unknown origin) at 50 nM by Z'LYTE screening method relative to control
Sequence of Hepatocyte growth factor receptor (Homo sapiens) (P08581 whole entry): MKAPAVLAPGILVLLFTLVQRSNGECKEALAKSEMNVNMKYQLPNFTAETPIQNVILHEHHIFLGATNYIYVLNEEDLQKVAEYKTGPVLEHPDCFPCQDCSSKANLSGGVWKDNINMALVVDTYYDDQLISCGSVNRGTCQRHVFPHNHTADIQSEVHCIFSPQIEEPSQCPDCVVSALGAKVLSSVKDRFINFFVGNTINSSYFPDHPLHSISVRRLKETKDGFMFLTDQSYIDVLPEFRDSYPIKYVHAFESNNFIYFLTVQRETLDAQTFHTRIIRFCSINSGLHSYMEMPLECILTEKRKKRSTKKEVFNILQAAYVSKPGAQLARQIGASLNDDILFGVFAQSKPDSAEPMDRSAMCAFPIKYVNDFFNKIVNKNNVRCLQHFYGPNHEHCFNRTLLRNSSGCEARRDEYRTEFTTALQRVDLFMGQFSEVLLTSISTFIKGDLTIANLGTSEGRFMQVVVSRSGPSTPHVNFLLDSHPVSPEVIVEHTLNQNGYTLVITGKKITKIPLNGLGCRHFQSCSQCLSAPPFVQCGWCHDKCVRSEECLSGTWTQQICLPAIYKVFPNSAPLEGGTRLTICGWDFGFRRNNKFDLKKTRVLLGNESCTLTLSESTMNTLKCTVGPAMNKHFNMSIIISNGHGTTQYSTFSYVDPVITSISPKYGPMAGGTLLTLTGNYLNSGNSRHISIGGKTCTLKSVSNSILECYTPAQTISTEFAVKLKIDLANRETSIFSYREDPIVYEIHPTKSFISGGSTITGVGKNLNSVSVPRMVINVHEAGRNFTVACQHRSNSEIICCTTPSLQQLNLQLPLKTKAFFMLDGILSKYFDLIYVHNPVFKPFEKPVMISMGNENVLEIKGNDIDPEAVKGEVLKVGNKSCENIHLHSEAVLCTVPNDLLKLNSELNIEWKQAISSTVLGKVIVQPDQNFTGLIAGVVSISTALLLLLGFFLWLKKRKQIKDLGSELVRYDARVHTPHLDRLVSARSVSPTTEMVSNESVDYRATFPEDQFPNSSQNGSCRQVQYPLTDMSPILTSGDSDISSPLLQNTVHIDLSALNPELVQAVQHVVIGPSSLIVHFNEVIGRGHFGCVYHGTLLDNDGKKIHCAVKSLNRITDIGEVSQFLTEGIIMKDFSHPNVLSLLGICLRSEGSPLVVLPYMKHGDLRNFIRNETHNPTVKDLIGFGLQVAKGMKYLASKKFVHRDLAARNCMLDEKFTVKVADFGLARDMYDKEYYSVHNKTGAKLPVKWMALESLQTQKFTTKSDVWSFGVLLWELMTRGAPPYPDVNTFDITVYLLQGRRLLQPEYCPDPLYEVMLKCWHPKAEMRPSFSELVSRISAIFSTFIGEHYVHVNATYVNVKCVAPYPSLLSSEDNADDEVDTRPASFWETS

[7] = target: T2, Serine/threonine-protein kinase D1 (Homo sapiens) (UniProt Q15139); assay: Inhibition of PKCmu (unknown origin) at 50 nM by Z'LYTE screening method relative to control
T2 sequence (whole entry): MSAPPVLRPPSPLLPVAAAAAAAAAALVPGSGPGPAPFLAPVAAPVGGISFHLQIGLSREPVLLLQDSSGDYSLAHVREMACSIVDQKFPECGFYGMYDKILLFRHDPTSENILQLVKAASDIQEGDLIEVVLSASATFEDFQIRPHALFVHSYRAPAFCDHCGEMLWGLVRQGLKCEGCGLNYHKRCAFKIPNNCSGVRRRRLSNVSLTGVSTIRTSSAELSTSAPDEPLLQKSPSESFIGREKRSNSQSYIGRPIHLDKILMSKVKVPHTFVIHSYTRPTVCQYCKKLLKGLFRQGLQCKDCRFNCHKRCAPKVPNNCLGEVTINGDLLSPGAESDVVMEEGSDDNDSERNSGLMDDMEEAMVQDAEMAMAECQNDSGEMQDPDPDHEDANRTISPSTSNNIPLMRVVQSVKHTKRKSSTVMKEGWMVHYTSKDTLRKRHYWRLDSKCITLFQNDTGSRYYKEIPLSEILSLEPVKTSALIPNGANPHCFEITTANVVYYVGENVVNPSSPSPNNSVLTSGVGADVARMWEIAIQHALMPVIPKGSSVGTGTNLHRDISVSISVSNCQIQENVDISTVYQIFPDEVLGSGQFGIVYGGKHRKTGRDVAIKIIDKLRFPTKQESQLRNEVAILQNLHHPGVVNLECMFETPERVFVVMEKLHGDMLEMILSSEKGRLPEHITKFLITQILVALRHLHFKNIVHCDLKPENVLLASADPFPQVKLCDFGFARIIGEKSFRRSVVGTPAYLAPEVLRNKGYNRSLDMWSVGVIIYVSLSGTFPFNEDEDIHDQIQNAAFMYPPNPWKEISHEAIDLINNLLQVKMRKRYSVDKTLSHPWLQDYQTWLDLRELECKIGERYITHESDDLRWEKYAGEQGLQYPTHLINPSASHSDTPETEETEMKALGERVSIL

[8] = target: Protein kinase C alpha type (Homo sapiens) (UniProt P17252); assay: Inhibition of PKCalpha (unknown origin) at 50 nM by Z'LYTE screening method relative to control
[9] = target: Protein kinase C eta type (Homo sapiens, UniProt P24723); assay: Inhibition of PKCeta (unknown origin) at 50 nM by Z'LYTE screening method relative to control
Sequence of Protein kinase C eta type (P24723 whole entry): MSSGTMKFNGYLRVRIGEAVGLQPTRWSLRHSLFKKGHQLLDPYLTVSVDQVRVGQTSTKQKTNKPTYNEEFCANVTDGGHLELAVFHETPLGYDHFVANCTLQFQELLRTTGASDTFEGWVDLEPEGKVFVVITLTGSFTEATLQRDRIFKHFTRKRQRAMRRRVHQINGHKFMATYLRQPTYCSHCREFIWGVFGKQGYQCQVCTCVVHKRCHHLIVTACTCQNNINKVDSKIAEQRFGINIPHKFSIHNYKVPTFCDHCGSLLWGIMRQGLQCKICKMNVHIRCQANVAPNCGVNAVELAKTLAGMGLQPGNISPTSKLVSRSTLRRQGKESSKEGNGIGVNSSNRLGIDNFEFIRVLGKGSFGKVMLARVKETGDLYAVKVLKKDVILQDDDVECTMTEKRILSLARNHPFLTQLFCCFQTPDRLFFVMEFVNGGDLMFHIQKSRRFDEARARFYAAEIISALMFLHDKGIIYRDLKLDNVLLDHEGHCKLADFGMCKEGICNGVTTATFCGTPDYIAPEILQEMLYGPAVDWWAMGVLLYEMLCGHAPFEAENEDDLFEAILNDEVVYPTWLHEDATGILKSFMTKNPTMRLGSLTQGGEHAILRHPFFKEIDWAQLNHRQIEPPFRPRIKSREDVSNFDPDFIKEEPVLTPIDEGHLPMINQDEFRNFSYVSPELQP

[10] = target: Protein kinase C gamma type (Homo sapiens) (UniProt P05129); assay: Inhibition of PKC gamma (unknown origin) at 50 nM by Z'LYTE screening method relative to control
4T1 = assay: Cytotoxicity against mouse 4T1 cells assessed as reduction in cell viability incubated for 96 hrs by MTT assay; assay type: functional, cell-based; settings: 4T1, 96 h
[11] = target: RAC-alpha serine/threonine-protein kinase (Homo sapiens) (UniProt P31749); assay: Inhibition of AKT1 (unknown origin) at 50 nM by Z'LYTE screening method relative to control
[12] = target: Receptor tyrosine-protein kinase erbB-2 (Homo sapiens) (UniProt P04626); assay: Inhibition of ERBB2 (unknown origin) at 50 nM by Z'LYTE screening method relative to control
[13] = target: Serine/threonine-protein kinase mTOR (Homo sapiens) (UniProt P42345); assay: Inhibition of FRAP1 (unknown origin) at 50 nM by Z'LYTE screening method relative to control
[14] = target: Cell division control protein 42 homolog (Homo sapiens) (UniProt P60953); assay: Inhibition of CDC42 delta (unknown origin) at 50 nM by Z'LYTE screening method relative to control
Sequence of Cell division control protein 42 homolog (Homo sapiens) (P60953 whole entry, looked up): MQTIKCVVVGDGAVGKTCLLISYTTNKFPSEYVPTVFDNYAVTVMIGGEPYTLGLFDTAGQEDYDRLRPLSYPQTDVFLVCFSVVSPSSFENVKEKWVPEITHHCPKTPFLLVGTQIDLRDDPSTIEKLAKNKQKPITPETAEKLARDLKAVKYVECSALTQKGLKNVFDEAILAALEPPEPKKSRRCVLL

Sequence of Mitogen-activated protein kinase 8 (Homo sapiens) (P45983 whole entry): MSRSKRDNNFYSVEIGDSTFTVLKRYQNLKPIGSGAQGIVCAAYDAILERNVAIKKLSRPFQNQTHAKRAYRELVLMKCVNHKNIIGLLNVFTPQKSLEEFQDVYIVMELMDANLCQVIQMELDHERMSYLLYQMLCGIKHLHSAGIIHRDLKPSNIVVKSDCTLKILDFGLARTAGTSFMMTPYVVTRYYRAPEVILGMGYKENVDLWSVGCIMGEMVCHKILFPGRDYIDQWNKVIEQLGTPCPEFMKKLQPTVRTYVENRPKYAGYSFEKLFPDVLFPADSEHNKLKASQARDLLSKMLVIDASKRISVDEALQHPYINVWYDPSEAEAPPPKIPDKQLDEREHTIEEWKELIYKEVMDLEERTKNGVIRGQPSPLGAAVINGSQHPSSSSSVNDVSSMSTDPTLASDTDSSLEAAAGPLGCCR

**Q.** What does the source list for `CCN(CC)CCCC(C)Nc1nc(-n2[se]c3ccccc3c2=O)nc2[nH]cnc12` (stereo unspecified)?
**A.** inhibition [1]: 0%; inhibition [2]: 0%; inhibition [3]: 0%; inhibition [4]: 4%; inhibition [5]: 3%; inhibition (Homo sapiens): 0%; inhibition [6]: 14%; inhibition [7]: 4%; inhibition [8]: 18%; inhibition [9]: 11%; inhibition [10]: 6%; IC50 (4T1): 15.2 µM; inhibition [11]: 9%; inhibition [12]: 1%; inhibition [13]: 2%; inhibition [14]: 0%
